Data reported in ChEMBL document CHEMBL1201862, “PubChem BioAssay data set” (2004).
Calls of active or inactive are those of the source.

Key:
Caspase-6 = biological target: T1, Caspase-6 (Homo sapiens, UniProt P55212); assay: human caspase-6 inhibitors, dose response, biochemical, VEID-R110 fluorescence, cherry-pick (AID 720632)
T1 sequence (P55212 whole entry): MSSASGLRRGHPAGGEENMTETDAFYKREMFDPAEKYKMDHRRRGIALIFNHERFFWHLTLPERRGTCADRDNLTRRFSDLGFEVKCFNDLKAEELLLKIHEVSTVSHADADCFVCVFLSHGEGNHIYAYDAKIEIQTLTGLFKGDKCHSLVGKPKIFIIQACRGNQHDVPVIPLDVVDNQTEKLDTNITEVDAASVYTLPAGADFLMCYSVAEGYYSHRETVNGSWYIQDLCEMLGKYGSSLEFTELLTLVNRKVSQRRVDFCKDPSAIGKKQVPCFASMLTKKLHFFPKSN

Protein RecA = biological target: T2, Protein RecA (Mycobacterium tuberculosis, UniProt P9WHJ3); assay: Fluorescence Cell-Free Homogeneous Dose Retest to Identify Inhibitors of RecA-Intein Splicing Activity. [Related pubchem assays (depositor defined):AID2097, AID2223, AID489010, AID492950]; assay type: functional
T2 sequence (P9WHJ3 whole entry): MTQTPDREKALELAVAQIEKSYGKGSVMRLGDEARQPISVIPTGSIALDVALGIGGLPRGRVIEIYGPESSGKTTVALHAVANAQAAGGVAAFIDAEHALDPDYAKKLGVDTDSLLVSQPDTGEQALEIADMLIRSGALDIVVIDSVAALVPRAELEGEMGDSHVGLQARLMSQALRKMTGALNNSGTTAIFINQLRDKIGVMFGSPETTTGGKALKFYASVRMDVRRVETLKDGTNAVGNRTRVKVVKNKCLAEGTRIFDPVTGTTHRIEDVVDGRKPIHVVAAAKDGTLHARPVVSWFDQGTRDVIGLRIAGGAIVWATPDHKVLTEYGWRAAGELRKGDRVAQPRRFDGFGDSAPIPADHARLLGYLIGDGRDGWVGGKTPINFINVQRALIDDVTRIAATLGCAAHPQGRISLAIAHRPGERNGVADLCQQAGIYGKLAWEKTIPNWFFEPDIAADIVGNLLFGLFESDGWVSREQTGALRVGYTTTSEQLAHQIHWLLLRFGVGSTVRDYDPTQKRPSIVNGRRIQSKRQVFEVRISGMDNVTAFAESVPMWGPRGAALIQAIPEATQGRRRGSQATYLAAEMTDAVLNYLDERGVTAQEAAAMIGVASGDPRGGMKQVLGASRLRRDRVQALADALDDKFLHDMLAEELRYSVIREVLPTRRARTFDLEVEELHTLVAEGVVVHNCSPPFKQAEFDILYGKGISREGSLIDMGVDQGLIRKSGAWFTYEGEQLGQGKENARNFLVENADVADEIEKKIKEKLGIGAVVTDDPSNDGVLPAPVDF

[1] = biological target: T3, Small ubiquitin-related modifier 1 (Homo sapiens, UniProt P63165); assay: inhibitors of SUMO1 peptide binding, dose response, biochemical, fluorescence polarization, uHTS hits (AID 624382); assay type: functional; settings: read-out: IC50_Mean
[2] = biological target: T4, Replicative DNA helicase DnaB (Mycobacterium tuberculosis, UniProt P9WMR3); assay: DnaB intein splicing inhibitors, dose response, biochemical, cell-free fluorescence (AID 449749); assay type: functional
T4 sequence (P9WMR3 whole entry): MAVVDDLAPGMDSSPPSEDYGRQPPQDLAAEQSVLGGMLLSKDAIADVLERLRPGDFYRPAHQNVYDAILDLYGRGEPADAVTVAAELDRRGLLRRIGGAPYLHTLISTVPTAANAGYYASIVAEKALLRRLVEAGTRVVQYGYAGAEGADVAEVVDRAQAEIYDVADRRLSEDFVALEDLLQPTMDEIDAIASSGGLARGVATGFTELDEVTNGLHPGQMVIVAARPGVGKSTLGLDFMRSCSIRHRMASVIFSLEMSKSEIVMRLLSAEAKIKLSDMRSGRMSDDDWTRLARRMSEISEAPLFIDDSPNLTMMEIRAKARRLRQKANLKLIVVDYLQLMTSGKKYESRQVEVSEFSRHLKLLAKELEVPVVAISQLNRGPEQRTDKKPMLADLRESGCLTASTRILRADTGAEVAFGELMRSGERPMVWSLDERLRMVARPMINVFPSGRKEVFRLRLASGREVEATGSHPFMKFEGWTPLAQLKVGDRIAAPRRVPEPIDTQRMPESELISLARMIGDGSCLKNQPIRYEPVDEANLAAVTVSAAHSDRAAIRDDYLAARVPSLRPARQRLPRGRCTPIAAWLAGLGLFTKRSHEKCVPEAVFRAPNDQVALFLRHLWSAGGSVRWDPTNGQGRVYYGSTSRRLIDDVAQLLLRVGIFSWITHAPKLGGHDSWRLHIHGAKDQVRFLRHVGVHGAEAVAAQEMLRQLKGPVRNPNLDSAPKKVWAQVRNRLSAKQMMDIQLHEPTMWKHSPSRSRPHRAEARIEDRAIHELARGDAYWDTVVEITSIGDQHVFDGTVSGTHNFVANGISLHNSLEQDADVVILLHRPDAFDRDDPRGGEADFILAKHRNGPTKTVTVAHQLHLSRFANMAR

[3] = biological target: T5, Carboxy-terminal domain RNA polymerase II polypeptide A small phosphatase 1 (Homo sapiens, UniProt Q9GZU7); assay: inhibitors of CTDSP1, concentration-response testing, biochemical assay, absorbance-based, actives from ultra-high-throughput screening (AID 540297); assay type: functional
T5 sequence (Q9GZU7 whole entry): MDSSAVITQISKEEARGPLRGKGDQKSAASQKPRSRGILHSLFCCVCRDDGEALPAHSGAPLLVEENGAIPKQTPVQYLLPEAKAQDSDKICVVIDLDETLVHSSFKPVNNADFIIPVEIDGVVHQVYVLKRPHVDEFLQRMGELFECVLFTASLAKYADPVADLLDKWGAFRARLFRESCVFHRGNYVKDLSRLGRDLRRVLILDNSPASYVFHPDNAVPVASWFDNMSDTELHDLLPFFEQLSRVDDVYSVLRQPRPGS

[4] = biological target: T3, Small ubiquitin-related modifier 1; assay: inhibitors of SUMO1 partner interactions, dose response, biochemical, FRET (AID 624383); assay type: functional; settings: read-out: IC50_Mean
[5] = inhibitors of firefly luciferase expression or activity, dose response, H4 neuroglioma cells, luminescence (AID 1990); assay type: functional, cell-based
[6] = HEK293T cytotoxicity, dose response, cytotoxicity control for miR-122 modulator project, cell-based, activator set, cherry-pick (AID 720690); assay type: functional;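 also: HEK293T human cells scored for general mammalian cytotoxicity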
[7] = inhibitors of SNCA 5'UTR-driven reporter translation, confirmation, H4 neuroglioma cells, luminescence (AID 1988); assay type: functional, cell-based
[8] = Luminescence Cell-Based Dose Response HTS to Identify Inhibitors of 5'UTR Stem-Loop Driven Prion Protein mRNA Translation in H4 Neuroglioblastoma Cells. [Related pubchem assays: 1827 (Project Summary), 1813 (Primary HTS)]; assay type: functional
[9] = biological target: T6, Sentrin-specific protease 8 (Homo sapiens, UniProt Q96LD8); assay type: functional
T6 sequence (Q96LD8 whole entry): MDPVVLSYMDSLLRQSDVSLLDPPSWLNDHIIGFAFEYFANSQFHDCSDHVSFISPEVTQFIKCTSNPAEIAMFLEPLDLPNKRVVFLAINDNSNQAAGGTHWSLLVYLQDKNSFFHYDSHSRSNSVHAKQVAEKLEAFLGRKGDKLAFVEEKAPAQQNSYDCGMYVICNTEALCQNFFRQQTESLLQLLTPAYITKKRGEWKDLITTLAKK

[10] = biological target: T6, Sentrin-specific protease 8; assay type: functional; remark: listed apart in the source
Beta-galactosidase = Beta-galactosidase (Escherichia coli, UniProt Q8VNN2); assay: Dose response counterscreen for EBI2 assay utilizing the enzyme, b-galactosidase.; assay type: functional
[11] = biological target: T7, Corticotropin-releasing factor receptor 2/Corticotropin-releasing factor-binding protein (Homo sapiens, UniProt P24387+Q13324); assay: activators of CRF receptor 2 with binding protein – uHTS hits, confirmation (AID 602473); assay type: functional; settings: read-out: EC50_Mean
T7 sequence (Q13324 whole entry): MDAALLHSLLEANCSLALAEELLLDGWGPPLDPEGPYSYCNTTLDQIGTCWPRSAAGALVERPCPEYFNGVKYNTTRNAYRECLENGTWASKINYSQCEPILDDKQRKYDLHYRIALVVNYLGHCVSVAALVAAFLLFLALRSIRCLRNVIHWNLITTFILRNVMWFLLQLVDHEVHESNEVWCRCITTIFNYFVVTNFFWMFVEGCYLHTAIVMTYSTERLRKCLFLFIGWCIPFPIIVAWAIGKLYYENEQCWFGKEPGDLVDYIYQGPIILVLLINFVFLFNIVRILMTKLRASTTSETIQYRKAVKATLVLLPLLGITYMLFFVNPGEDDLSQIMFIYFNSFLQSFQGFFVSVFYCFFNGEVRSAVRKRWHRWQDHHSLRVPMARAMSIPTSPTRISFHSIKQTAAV
T7 sequence (P24387 whole entry): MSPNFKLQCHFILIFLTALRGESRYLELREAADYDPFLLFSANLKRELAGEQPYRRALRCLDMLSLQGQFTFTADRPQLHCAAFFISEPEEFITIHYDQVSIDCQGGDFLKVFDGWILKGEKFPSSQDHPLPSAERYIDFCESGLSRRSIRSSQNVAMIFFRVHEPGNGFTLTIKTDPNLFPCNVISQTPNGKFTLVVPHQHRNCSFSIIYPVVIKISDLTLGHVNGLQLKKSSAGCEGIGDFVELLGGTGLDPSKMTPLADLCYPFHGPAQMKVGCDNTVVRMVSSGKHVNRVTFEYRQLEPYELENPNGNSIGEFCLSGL

[12] = biological target: T7, Corticotropin-releasing factor receptor 2/Corticotropin-releasing factor-binding protein; assay: Dose Response confirmation of uHTS hits for small molecule antagonists of the CRF-binding protein and CRF-R2 receptor complex.; assay type: functional; settings: read-out: IC50_Mean
[13] = biological target: T8, Histone-lysine N-methyltransferase NSD2 (Homo sapiens, UniProt O96028); assay type: biochemical
T8 sequence (O96028 whole entry): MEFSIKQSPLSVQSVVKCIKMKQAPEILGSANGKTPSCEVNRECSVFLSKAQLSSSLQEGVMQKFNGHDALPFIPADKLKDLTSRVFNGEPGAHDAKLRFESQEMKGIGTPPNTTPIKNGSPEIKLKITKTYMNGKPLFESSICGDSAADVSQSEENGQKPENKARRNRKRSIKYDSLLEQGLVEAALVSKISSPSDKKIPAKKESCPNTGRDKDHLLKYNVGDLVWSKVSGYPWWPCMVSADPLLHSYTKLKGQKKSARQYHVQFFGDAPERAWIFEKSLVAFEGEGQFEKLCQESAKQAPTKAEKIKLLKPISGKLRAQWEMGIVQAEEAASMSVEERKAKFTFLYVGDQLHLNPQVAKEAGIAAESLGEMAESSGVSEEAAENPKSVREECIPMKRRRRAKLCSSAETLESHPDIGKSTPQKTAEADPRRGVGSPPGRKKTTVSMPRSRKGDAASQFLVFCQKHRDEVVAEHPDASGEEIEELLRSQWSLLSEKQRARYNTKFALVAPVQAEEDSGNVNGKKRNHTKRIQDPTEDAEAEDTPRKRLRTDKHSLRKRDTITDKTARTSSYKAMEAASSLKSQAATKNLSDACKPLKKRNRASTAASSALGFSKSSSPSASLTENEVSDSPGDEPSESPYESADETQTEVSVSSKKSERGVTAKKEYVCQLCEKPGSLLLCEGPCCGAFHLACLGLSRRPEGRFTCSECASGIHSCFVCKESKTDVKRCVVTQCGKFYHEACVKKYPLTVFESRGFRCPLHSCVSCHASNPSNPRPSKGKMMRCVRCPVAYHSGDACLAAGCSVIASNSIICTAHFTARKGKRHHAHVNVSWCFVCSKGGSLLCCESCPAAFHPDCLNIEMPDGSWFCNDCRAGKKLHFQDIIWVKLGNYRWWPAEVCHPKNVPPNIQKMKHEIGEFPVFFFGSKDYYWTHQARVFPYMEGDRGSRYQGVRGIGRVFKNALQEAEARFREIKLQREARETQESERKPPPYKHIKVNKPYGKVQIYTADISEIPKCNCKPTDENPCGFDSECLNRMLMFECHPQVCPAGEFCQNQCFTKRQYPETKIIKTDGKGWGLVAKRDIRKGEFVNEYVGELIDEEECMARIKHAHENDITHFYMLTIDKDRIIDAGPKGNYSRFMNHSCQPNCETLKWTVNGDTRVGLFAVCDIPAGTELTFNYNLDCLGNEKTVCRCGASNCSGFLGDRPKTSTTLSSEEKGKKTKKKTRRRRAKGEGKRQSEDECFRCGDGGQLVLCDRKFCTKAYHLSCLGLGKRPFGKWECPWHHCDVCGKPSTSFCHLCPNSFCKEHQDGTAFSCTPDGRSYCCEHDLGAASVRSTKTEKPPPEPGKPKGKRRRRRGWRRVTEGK

[14] = biological target: SWI/SNF-related matrix-associated actin-dependent regulator of chromatin subfamily A member 2 (Homo sapiens, UniProt P51531); assay: Luminescence-based cell-based high throughput dose response assay to identify activators of the function of SWI/SNF related, matrix associated, actin dependent regulator of chromatin, subfamily a, member 2 (SMARCA2, BRM).; assay type: functional
[15] = Counterscreen for activators of the function of SWI/SNF related, matrix associated, actin dependent regulator of chromatin, subfamily a, member 2 (SMARCA2, BRM): Luminescence-based cell-based high throughput dose response assay to identify non-selective compounds using the VP16 reporter assay.; assay type: functional

Sequence of SWI/SNF-related matrix-associated actin-dependent regulator of chromatin subfamily A member 2 (P51531 whole entry): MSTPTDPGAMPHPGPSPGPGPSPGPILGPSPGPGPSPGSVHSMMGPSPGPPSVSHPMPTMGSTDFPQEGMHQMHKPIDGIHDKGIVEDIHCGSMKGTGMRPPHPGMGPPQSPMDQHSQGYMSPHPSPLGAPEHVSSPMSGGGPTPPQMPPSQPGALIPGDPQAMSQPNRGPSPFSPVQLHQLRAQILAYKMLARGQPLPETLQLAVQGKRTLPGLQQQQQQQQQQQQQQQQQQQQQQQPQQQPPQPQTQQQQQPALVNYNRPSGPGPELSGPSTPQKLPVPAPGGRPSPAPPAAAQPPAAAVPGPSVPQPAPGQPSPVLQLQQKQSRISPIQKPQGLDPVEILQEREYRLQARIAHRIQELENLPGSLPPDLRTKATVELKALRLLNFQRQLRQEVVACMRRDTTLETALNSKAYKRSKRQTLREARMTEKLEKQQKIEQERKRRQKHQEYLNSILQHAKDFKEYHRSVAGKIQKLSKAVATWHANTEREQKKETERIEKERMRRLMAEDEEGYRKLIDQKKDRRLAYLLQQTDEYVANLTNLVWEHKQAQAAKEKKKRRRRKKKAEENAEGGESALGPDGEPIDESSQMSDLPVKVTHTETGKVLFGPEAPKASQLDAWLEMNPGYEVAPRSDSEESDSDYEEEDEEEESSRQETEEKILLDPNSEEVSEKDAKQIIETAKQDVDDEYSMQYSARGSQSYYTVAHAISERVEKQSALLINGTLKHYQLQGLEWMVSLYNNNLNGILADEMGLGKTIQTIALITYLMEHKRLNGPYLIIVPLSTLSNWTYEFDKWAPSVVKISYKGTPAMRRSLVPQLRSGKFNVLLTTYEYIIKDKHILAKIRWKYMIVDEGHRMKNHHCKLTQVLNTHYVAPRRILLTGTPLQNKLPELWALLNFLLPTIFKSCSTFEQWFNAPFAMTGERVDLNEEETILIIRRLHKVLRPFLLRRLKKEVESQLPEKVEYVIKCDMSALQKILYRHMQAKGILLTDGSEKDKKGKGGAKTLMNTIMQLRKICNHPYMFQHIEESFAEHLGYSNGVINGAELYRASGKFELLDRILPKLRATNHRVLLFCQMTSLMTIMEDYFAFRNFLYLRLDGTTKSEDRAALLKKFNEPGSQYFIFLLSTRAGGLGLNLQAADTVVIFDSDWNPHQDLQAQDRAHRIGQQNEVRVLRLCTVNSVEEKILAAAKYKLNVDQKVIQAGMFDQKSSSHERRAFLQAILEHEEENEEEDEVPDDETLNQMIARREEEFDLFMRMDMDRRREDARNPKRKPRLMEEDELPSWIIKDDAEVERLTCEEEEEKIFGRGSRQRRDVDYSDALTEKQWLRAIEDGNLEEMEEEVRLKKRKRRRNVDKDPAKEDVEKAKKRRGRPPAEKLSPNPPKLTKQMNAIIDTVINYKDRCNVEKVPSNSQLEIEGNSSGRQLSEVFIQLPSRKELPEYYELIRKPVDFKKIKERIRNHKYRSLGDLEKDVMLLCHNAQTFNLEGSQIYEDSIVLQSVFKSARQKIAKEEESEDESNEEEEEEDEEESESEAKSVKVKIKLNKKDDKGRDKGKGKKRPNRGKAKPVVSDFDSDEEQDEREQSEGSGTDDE
Sequence of Beta-galactosidase (Q8VNN2 whole entry): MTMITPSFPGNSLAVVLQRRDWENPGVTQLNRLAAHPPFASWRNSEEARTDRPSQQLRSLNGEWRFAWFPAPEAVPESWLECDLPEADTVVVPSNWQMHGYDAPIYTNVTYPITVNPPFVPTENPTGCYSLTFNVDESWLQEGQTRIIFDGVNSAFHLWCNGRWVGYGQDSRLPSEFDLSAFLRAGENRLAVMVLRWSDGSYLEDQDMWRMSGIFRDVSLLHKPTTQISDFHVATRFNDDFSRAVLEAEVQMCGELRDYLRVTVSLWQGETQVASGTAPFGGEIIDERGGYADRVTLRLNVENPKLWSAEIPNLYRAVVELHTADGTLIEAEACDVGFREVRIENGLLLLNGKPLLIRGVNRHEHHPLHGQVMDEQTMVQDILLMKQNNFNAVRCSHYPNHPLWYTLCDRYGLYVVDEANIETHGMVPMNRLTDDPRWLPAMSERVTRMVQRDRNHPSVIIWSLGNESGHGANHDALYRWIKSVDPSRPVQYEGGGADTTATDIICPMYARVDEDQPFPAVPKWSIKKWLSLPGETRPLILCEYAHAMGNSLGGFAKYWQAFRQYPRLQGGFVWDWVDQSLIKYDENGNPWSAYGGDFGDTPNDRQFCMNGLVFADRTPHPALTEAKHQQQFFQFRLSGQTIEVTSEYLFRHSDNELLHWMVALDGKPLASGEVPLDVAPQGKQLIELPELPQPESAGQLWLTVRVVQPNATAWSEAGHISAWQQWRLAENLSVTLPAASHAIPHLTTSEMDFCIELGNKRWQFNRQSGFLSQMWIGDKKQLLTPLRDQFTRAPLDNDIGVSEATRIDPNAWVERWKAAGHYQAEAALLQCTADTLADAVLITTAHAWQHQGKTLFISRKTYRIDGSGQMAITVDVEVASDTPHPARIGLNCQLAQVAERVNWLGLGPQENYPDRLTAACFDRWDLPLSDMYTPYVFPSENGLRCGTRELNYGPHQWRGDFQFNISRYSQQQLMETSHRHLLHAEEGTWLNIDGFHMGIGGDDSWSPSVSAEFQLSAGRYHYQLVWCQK
T3 sequence (P63165 whole entry): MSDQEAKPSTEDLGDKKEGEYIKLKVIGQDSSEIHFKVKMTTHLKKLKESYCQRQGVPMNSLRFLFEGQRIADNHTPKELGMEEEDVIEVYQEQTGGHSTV

## CC1=NN(c2ccc(Cl)c(C(=O)O)c2)C(=O)C1
Caspase-6
  AC50: 1.16 µM (active)
Protein RecA
  EC50: 2.15 µM (active)
[1]
  IC50: > 66.6 µM (inactive)
[2]
  AC50: 1.88 µM (active)
[3]
  IC50: 8.96 µM (active)
[4]
  IC50: 9.17 µM (active)

## CCOc1ccc(-c2nnc(SCC(=O)Nc3ccc4c(c3)c3ccccc3n4CC)n2N)cc1
[5]
  EC50: 42.3 µM (active)
[6]
  AC50: 10.3 µM (active)
[7]
  EC50: 11.6 µM (active)
[8]
  EC50: > 120 µM (not active)

## O=C(COc1ccccc1)N1CCc2ccccc2C1
[9]
  IC50: 93.6 µM (inactive)
[10]
  IC50: 23.7 µM (active)

## CCOC(=O)N1CCN(C(=O)/C=C/c2ccc(OC)cc2)CC1
Beta-galactosidase
  IC50: > 80 µM (inactive)

## CC(=O)N1CCOc2ccc(S(=O)(=O)N3CCC(C(=O)NCc4ccc(C)cc4)CC3)cc21
Beta-galactosidase
  IC50: > 80 µM (inactive)
[11]
  EC50: > 53 µM (inactive)
[12]
  IC50: > 47.1 µM (inactive)

## O=[N+]([O-])c1ccc(N(CCO)CCO)c2c1no[n+]2[O-]
[13]
  AC50: 4.45 µM (active)
[14]
  EC50: > 91.2 µM (inactive)
[15]
  EC50: > 91.2 µM (inactive)

## CC(C)CSc1nnc(-c2ccco2)n1C
[14]
  EC50: > 91.2 µM (inactive)
[15]
  EC50: > 91.2 µM (inactive)
